According to patent US11072635B2, “Macrocyclic broad spectrum antibiotics” (priority 2015, dated 2021):
≈ marks a conversion by molar mass, not a printed value.

Assays:
[1] = molecular target: T1, SpsB (Staphylococcus aureus signal peptidase) (Staphylococcus aureus, UniProt P0A070); assay: Whole-cell SpsB biochemical screening assay (kinetic fluorogenic enzyme activity)
T1 construct: a suspension of Staphylococcus aureus cells as a source of SpsB instead of recombinant SpsB protein; endogenous in cells; host or cells: S. aureus, USA300 background, overexpressing SpsB (whole-cell suspension)
Procedure: A kinetic fluorogenic enzyme activity assay was used to assess inhibition of SpsB (Staphylococcus aureus signal peptidase) activity and IC50s were determined. This assay uses a suspension of Staphylococcus aureus cells as a source of SpsB instead of recombinant SpsB protein.
Cell preparation: Luria broth (LB) was inoculated with S. aureus (USA300 background, overexpressing SpsB) and shaken at 37° C. until an OD600 nm of 1.5-2.0 was reached (˜4 hr). The culture was then diluted to an OD600 nm of 1.0 with LB, aliquoted and centrifuged at 10,000×g for 2 mins. The supernatant was removed and the pellet was resuspended in phosphate buffer (1×PBS, 12.5 mg/L MgCl2, 25 mg/L CaCl2, 0.1% Tween-80) to an OD600 nm of 0.5, then centrifuged again at 10,000×g for 2 mins. The supernatant was removed and the pellets were frozen at −20° C.
Test compounds were prepared in DMSO at a concentration of 10 mg/mL. These compound stocks were diluted into DMSO to a concentration of 25 μg/mL and serial 3-fold dilutions were made in DMSO, for a total of 11 compound concentrations. 20 nL of each compound solution was pre-spotted into a white 384-well plate (50 μL/well polypropylene, Nunc) using acoustic fluid transfer (Echo).
Frozen S. aureus pellets were resuspended in assay buffer (1×PBS, 12.5 mg/L MgCl2, 25 mg/L CaCl2, 0.1% Tween-80) to an OD600 nm of 0.05, then mixed 1:1 (v/v) with 20 μM substrate ((Dabcyl)βAla-KPAKAAE(Edans)) in assay buffer, and this solution was added (20 μL/well) to the 384-well plate that had been pre-spotted with compound. Fluorescence intensity was then immediately read kinetically for 30 minutes with 2 minute read intervals to monitor cleavage of the internally quenched peptide substrate (excitation wavelength=340 nm, emission wavelength=490 nm, Molecular Devices Spectramax M5). Reaction rate (slope) was plotted against inhibitor concentration to derive the IC50.

[2] = tested on: Methicillin Resistant Staphylococcus aureus strain USA 300, NRS384 (S. aureus); assay: Minimum inhibitory concentration, broth micro-dilution (CLSI); format: cell-based; settings: MRSA / NRS 384 / USA300, MRSA USA 300, NRS384, 35° C., 22 hours, cation adjusted Mueller Hinton Broth with 0.002% Tween-80, read-out: MIC (μg/mL) S. aureus
Procedure: (§1) In vitro antimicrobial activity of each compound was determined by measuring minimal inhibitor concentrations (MICs) using the broth micro-dilution technique as approved by the Clinical and Laboratory Standards Institute (CLSI) (Methods for Dilution Antimicrobial Susceptibility Tests for Bacteria that Grow Aerobically; Approved Standard—Eighth Edition. CLSI document M07-A8. Wayne, Pa.: Clinical and Laboratory Standards; 2009). Antibacterial activity was measure against three strains of bacteria: a Methicillin Resistant Staphylococcus aureus strain USA 300, NRS384 (S. aureus); a strain of Escherichia coli MC4100 harboring the IMP4213 (E. coli IMP), which results in increased outer-membrane permeability (B Martin and Silhavy T. Imp/OstA is required for cell envelope biogenesis in Escherichia coli. (2002) Molecular Microbiology, 45(5), 1289-1302), and Escherichia coli ATCC 25922 (E. coli), a clinically relevant Gram-negative strain. Cells were inoculated onto plates of Trypyticase Soy Agar or Luria Agar respectively and grown at 35° C. for 20 hours. Inocula suspensions were prepared by scraping cells into 1 mL of testing media (cation adjusted Mueller Hinton Broth supplemented with 0.002% v/v Tween-80) and diluting to a final OD600 nm of 0.01.
(§2) Test compounds were prepared in DMSO at a concentration of 10 mg/mL. […] In protocol 2, the compound stocks were diluted into testing media at a concentration of 4 μg/mL and serial 2-fold dilutions were made in the same media, in 96-well U bottom microtiter dishes, for a total of 10 compound concentrations. In protocol 3, compound stocks were diluted into testing media at a concentration of 0.5 μg/mL, with serial 2-fold dilutions conducted as described above. […] Inocula suspensions were added to the 2-fold serial dilutions of test compounds to a final density of OD OD600 nm of 0.0005 and incubated at 35° C. for 22 hours.

[3] = tested on: Escherichia coli ATCC 25922 (E. coli); assay: as above; format: cell-based; settings: ATCC25922, E. coli ATCC 25922, 35° C., 22 hours, read-out: MIC (μg/mL) E. coli
Procedure: Cells were inoculated onto plates of Trypyticase Soy Agar or Luria Agar respectively and grown at 35° C. for 20 hours. Inocula suspensions were prepared by scraping cells into 1 mL of testing media (cation adjusted Mueller Hinton Broth supplemented with 0.002% v/v Tween-80) and diluting to a final OD600 nm of 0.01.
as §2

[4] = tested on: Escherichia coli MC4100 harboring the IMP4213 (E. coli IMP); assay: microbe, parasite or virus in culture; format: cell-based; settings: 22 h, read-out: MIC (μg/mL) E. coli IMP
Procedure: as §1, §2

T1 sequence (P0A070 whole entry): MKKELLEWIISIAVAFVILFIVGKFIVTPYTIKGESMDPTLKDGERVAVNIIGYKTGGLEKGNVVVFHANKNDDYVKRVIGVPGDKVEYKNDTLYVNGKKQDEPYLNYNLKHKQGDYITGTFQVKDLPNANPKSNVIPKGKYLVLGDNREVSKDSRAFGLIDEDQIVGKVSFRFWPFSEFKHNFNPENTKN

SMILES | IC50 [1] [µM] | MIC [2] [µg/mL] | MIC [3] [µg/mL] | MIC [4] [µg/mL]
CCCCc1ccc(-c2ccc(C(=O)N[C@@H](CCCN)C(=O)N(C)[C@@H]3C(=O)N[C@@H](C)C(=O)N[C@H](c4ncc(C#N)[nH]4)Cc4ccc(OCCN)c(c4)-c4cc3ccc4OCCN)cc2)cc1 [Compound 139] | 0.11 | 1 (≈ 1.11 µM) | 24 (≈ 26.8 µM) | 1.5 (≈ 1.67 µM)
CCCCc1ccc(-c2ccc(C(=O)N[C@@H](CCCN)C(=O)N(C)[C@@H]3C(=O)N[C@@H](C)C(=O)N[C@H](c4ncc(C(F)(F)F)[nH]4)Cc4ccc(OCCN)c(c4)-c4cc3ccc4OCCN)cc2)cc1 [Compound 140] | 0.37 | 4 (≈ 4.25 µM) | 32 (≈ 34 µM) | 1 (≈ 1.06 µM)
CCCCCCCCCCCCCC(=O)N[C@@H](CCN)C(=O)N(C)[C@@H]1C(=O)N[C@@H](C)C(=O)N[C@H](c2noc(=O)[nH]2)Cc2ccc(OCCN)c(c2)-c2cc1ccc2OCCN [Compound 143] | 0.0015 | 0.13 (≈ 0.153 µM) | 0.5 (≈ 0.588 µM) | 0.023 (≈ 0.0271 µM)
